Test results published in paper PMC12277336, “Hypericum empetrifolium subsp. empetrifolium: an assessment of its antifungal, antidiabetic, anti-aging, and neuroprotective potential” (Frontiers in Pharmacology, 2025).
≈ marks a conversion by molar mass, not a printed value. Where “and” joins values, the source holds several entries; their conditions need not be identical. Equal values may be shown once.

Experiments:
[1] = test system: Candida albicans ATCC 10231; experiment: MIC, broth microdilution; type: cell-based; details: ATCC10231, C. albicans ATCC 10231
Description: (§1) The Minimum Inhibitory Concentrations (MIC) of the extracts were determined using the broth microdilution method in accordance with the guidelines of the Clinical and Laboratory Standards Institute (CLSI) ([Clinical and Laboratory Standards Institute, 2020]). The procedure was originally based on the CLSI M27-A2 standard (1997) ([[…]]) for antifungal susceptibility testing, while the updated fourth edition (2017) was referenced to reflect current methodological standards ([[…]]).
(§2) The inocula of the tested bacterial and yeast strains were prepared following CLSI protocols, and the extracts were dissolved in DMSO to prepare stock solutions. Serial dilutions ranging from 1,250 to 0.06 μ g/mL were performed in Mueller-Hinton Broth (for bacterial strains) and RPMI-1640 medium (for yeast strains). MIC values of the extracts were determined against four g (−) bacterial strains (P. aeruginosa ATCC 27853, Escherichia coli ATCC 25922, Klebsiella pneumoniae ATCC 4352, Proteus mirabilis ATCC 14153), three g (+) bacterial strains (Staphylococcus aureus ATCC 29213, Staphylococcus epidermidis ATCC 12228, Enterococcus faecalis ATCC 29212), and three yeast strains (Candida albicans ATCC 10231, Candida parapsilosis ATCC 22019, Candida tropicalis ATCC 750).

[2] = DPPH free radical scavenging assay
Description: The DPPH radical scavenging assay was evaluated using 1,1-diphenyl-2-picrylhydrazyl (DPPH) free radical according to the method developed by [Blois (1958)]. Extracts were dissolved in methanol at a concentration of 1 mg/mL to prepare the primary stock solutions. Aliquots of these solutions, in volumes of 2, 5, 10, and 20 μ L, were each diluted to a final volume of 40 μ L with methanol. Subsequently, 160 μ L of DPPH solution at a 0.1 mM concentration was introduced to each mixture. After the solutions were incubated at room temperature in the dark for 30 min, their absorbance was measured at a wavelength of 517 nm. BHA, BHT, and α -TOC were used as positive control.

[3] = ABTS cation radical scavenging assay
Description: The ABTS cation radical scavenging assay was evaluated using 2,2′-azino-bis(3-ethylbenzothiazoline-6-sulfonic acid) according to the method developed by [Re et al. (1999)]. Extracts were dissolved in methanol at a concentration of 1 mg/mL to prepare the primary stock solutions. Aliquots of these solutions, in volumes of 2, 5, 10, and 20 μ L, were each diluted to a final volume of 40 μ L with methanol. Subsequently, 160 μ L of ABTS cation radical solution at a 7 mM concentration was introduced to each mixture. The reactions were allowed to proceed in darkness for 6 min, subsequent to which the absorbance was recorded at a wavelength of 734 nm. BHA, BHT, and α -TOC were used as positive control.

[4] = Cupric reducing antioxidant capacity (CUPRAC); details: 450 nm
Description: The absorbance of this chelate formation is then quantified at a wavelength of 450 nm. In the CUPRAC method, according to the procedure developed by Apak et al.; Cu (II), neocuproine (2,9-dimethyl-1,10-phenanthroline), and NH4OAc buffer were added to the sample and standard solutions to achieve final concentrations of 10, 25, 50, and 100 μ g/mL. After an incubation period of 1 h, the absorbance was measured at 450 nm. BHA, BHT, and α -TOC were used as positive control ([Apak et al., 2004]).

α-Glucosidase = details: flavonoids isolated from H. attenuatum; ref Jin et al., 2021; cited from earlier work
P. aeruginosa ATCC 27853 = experiment: MIC, broth microdilution; type: cell-based; details: Pseudomonas aeruginosa, ATCC27853
Description: as §1, §2

[5] = test system: Candida parapsilosis ATCC 22019; experiment: MIC, broth microdilution; type: cell-based; details: Lodderomyces parapsilosis, ATCC22019; C. parapsilosis ATCC 22019
Description: as §1, §2

[6] = test system: Candida tropicalis ATCC 750; experiment: MIC, broth microdilution; type: cell-based; details: ATCC750, C. tropicalis ATCC 750
Description: as §1, §2

[7] = test system: Enterococcus faecalis ATCC 29212; experiment: MIC, broth microdilution; type: cell-based; details: ATCC29212
Description: as §1, §2

[8] = molecular target: T1, Porcine pancreatic elastase (Sus scrofa, UniProt P00772); experiment: Anti-elastase assay; type: biochemical
T1 construct: Porcine pancreatic elastase (E.C. 3.4.21.36); from tissue; host or cells: porcine pancreas
T1 sequence (P00772 27-266): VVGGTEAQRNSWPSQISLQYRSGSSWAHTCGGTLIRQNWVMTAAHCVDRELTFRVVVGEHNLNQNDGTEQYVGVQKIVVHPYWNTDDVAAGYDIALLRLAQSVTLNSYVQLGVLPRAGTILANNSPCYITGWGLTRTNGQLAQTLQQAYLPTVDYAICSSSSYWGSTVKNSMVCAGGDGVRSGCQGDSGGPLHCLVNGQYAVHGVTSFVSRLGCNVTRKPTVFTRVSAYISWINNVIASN
Description: The elastase inhibition assay was conducted using a spectrophotometric method developed by [Lee et al. (1999)]. Porcine pancreatic elastase (E.C. 3.4.21.36) at a concentration of 3.33 mg/mL was used as the enzyme and dissolved in 0.2 mM Tris-HCl buffer (pH 8.0). The substrate, N-Succinyl-Ala-Ala-Ala-p-nitroanilide (SANA), was prepared in the same buffer at a concentration of 1.6 mM. For each reaction, 50 μ L of buffer, 25 μ L of enzyme solution, and 50 μ L of the test extract were pre-incubated at room temperature for 15 min before the addition of SANA. Epigallocatechin gallate (EGCG) was used as the positive control, while ethanol served as the negative control. The reaction was initiated by adding 125 μ L of the substrate solution to the mixture, followed by incubation at room temperature for 20 min. The absorbance change was then measured at 410 nm.

[9] = test system: Staphylococcus epidermidis ATCC 12228; experiment: MIC, broth microdilution; type: cell-based; details: S. epidermidis ATCC 12228
Description: as §1, §2

[10] = test system: Escherichia coli ATCC 25922; experiment: MIC, broth microdilution; type: cell-based; details: E. coli ATCC 25922
Description: as §1, §2

[11] = test system: Proteus mirabilis ATCC 14153; experiment: MIC, broth microdilution; type: cell-based; details: P. mirabilis ATCC 14153
Description: as §1, §2

[12] = test system: Staphylococcus aureus ATCC 29213; experiment: MIC, broth microdilution; type: cell-based; details: S. aureus ATCC 29213
Description: as §1, §2

[13] = test system: Klebsiella pneumoniae ATCC 4352; experiment: MIC, broth microdilution; type: cell-based; details: K. pneumoniae ATCC 4352
Description: as §1, §2

Row | SMILES | DPPH (% Inhibition) ([2]; 10 µg/mL) [%] | DPPH (% Inhibition) ([2]; 25 µg/mL) [%] | DPPH (% Inhibition) ([2]; 50 µg/mL) [%] | DPPH (% Inhibition) ([2]; 100 µg/mL) [%] | ABTS (% Inhibition) ([3]; 10 µg/mL) [%] | ABTS (% Inhibition) ([3]; 25 µg/mL) [%] | ABTS (% Inhibition) ([3]; 50 µg/mL) [%] | ABTS (% Inhibition) ([3]; 100 µg/mL) [%] | CUPRAC (Absorbance) ([4]; 10 µg/mL) | CUPRAC (Absorbance) ([4]; 25 µg/mL) | CUPRAC (Absorbance) ([4]; 50 µg/mL) | CUPRAC (Absorbance) ([4]; 100 µg/mL) | other results
1 | Clc1ccccc1C(c1ccccc1)(c1ccccc1)n1ccnc1 [Clotrimazole] | – | – | – | – | – | – | – | – | – | – | – | – | MIC [1]: 4.9 µg/mL (≈ 14.2 µM)
2 | Cc1cc(C(C)(C)C)c(O)c(C(C)(C)C)c1 [BHT] | 39.28 ± 1.03 | 60.68 ± 4.18 | 69.14 ± 1.84 | 76.17 | 76.35 ± 0.78 | 88.00 ± 2.49 | 88.96 ± 0.13 | 89.13 | 0.652 ± 0.01 | 1.211 ± 0.18 | 2.040 ± 0.31 | 3.559 ± 0.27 and 3.559 | –
3 | Cc1c(C)c2c(c(C)c1O)CC[C@@](C)(CCC[C@H](C)CCC[C@H](C)CCCC(C)C)O2 [α-TOC] | 63.28 ± 3.28 | 73.51 ± 4.14 | 76.94 ± 0.71 | 78.07 | 65.39 ± 2.37 | 83.47 ± 0.98 | 85.89 ± 2.62 | 88.89 | 0.391 ± 0.01 | 0.904 ± 0.00 | 1.563 ± 0.09 | 2.460 ± 0.09 and 2.460 | –
4 | O=c1c(O[C@@H]2OC[C@H](O)[C@H](O)[C@H]2O)c(-c2ccc(O)c(O)c2)oc2cc(O)cc(O)c12 [guaijaverin] | – | – | – | – | – | – | – | – | – | – | – | – | IC50 (α-Glucosidase): 17.2 ± 0.75 µM
5 | COc1ccc(O)c(C(C)(C)C)c1 [BHA] | 62.00 ± 0.90 | 71.86 ± 0.76 | 74.48 ± 0.35 | 75.23 | 63.94 ± 0.18 | 78.23 ± 1.08 | 87.41 ± 0.16 | 87.62 | 0.838 ± 0.03 | 1.647 ± 0.18 | 2.753 ± 0.09 | 3.769 ± 0.05 and 3.769 | –
6 | CC(C)(O/N=C(\C(=O)N[C@@H]1C(=O)N2C(C(=O)[O-])=C(C[n+]3ccccc3)CS[C@H]12)c1csc(N)n1)C(=O)O [Ceftazidime] | – | – | – | – | – | – | – | – | – | – | – | – | MIC (P. aeruginosa ATCC 27853): 2.4 µg/mL (≈ 4.39 µM)
7 | C[C@@H]1[C@H](O)[C@@H](C)/C=C/C=C/C=C/C=C/C=C/C=C/C=C/[C@H](O[C@@H]2O[C@H](C)[C@@H](O)[C@H](N)[C@@H]2O)C[C@@H]2O[C@](O)(C[C@@H](O)C[C@@H](O)[C@H](O)CC[C@@H](O)C[C@@H](O)CC(=O)O[C@H]1C)C[C@H](O)[C@H]2C(=O)O [Amphotericin B] | – | – | – | – | – | – | – | – | – | – | – | – | MIC [5]: 1 µg/mL (≈ 1.08 µM); MIC [6]: 0.5 µg/mL (≈ 0.541 µM)
8 | NCC[C@H](O)C(=O)N[C@@H]1C[C@H](N)[C@@H](O[C@H]2O[C@H](CN)[C@@H](O)[C@H](O)[C@H]2O)[C@H](O)[C@H]1O[C@H]1O[C@H](CO)[C@@H](O)[C@H](N)[C@H]1O [Amikacin] | – | – | – | – | – | – | – | – | – | – | – | – | MIC [7]: 128 µg/mL (≈ 219 µM)
9 | C[C@H]1[C@H](C)CC[C@]2(C(=O)O)CC[C@]3(C)C(=CC[C@@H]4[C@@]5(C)CC[C@H](O)C(C)(C)[C@@H]5CC[C@]43C)[C@H]12 [Ursolic acid] | – | – | – | – | – | – | – | – | – | – | – | – | IC50 [8]: 30.2 µM
10 | CO/N=C(\C(=O)N[C@@H]1C(=O)N2C(C(=O)[O-])=C(COC(N)=O)CS[C@H]12)c1ccco1.[Na+] [Cefuroxime-Na] | – | – | – | – | – | – | – | – | – | – | – | – | MIC [9]: 9.8 µg/mL; MIC [10]: 4.9 µg/mL; MIC [11]: 2.4 µg/mL; MIC [12]: 1.2 µg/mL; MIC [13]: 4.9 µg/mL
